Experimental data: patent US6482837B1 (priority 1998, dated 2002)
Like-named read-outs stand apart in the source and are kept apart here.

What was measured:
[1] = system: M3 versus M1 and M2 receptors; conditions: cited from earlier work
[2] = system: guinea pig bladder; conditions: in vivo; cited from earlier work
[3] = system: muscarinic receptors in heart and submaxillary gland; conditions: in vivo, iv; cited from earlier work
[4] = system: guinea pig bladder; conditions: in vivo; cited from earlier work; remark: listed apart in the source
[5] = system: Guinea pig detrusor; type: cell-based
[6] = system: tracheal rings; type: cell-based, guinea pig
[7] = system: lung; conditions: iv
[8] = system: miniature swine bladder; conditions: in vivo
[9] = system: muscarinic receptors; conditions: dog, in vivo; cited from earlier work
[10] = system: muscarinic receptors; conditions: human, in vivo, cited from earlier work
[11] = in vivo; cited from earlier work
[12] = human, in vivo
[13] = molecular target: M3 receptor (Homo sapiens, UniProt P20309); conditions: cited from earlier work
M3 receptor, sequence (P20309 whole entry): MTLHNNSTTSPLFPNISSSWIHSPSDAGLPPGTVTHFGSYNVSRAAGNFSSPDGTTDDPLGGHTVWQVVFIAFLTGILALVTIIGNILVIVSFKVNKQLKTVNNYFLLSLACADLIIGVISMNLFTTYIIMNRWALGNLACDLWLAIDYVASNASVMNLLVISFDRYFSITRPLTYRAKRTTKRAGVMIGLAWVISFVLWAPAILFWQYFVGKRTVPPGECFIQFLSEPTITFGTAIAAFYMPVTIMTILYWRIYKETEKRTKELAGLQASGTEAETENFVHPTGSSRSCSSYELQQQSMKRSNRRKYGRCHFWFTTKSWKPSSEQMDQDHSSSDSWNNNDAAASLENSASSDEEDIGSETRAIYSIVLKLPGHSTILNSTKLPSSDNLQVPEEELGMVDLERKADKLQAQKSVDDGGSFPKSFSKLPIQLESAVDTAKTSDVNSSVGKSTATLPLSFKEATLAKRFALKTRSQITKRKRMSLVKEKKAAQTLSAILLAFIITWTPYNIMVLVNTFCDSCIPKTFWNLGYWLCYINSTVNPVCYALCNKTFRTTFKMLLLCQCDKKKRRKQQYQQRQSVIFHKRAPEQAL

[14] = human, in vivo; cited from earlier work

## 3-(4-benzylpiperazinyl)-1,1-diphenyl-1-hydroxy-2-propanone
[1]
  selective for M3 versus M1: 18 fold
  selective for M3 versus M2 receptors: 242 fold
[2]
  separation between bladder function and effect on mydriasis: 20 fold
  separation between bladder function and effect on salivation: 41 fold

## O=C(OC1CCN(CCBr)CC1)C(c1ccccc1)c1ccccc1 [4-DAMP bromo mustard, N-(2-bromoethyl)-4-piperidinyl diphenylacetate]
[3]
  receptors alkylated in both the heart and submaxillary gland: more than 95%

## CN(C)CC#CCCC(=O)C(O)(c1ccccc1)C1CCC1 (centres unmarked) [14b, 1-cyclobutyl-7-(dimethylamino)-1-hydroxy-1-phenyl-5-heptyn-2-one]
[4]
  duration of action relative to oxybutynin: 5 fold

## COC(=O)C1=CC[C@@H]2CC[C@H]1N2C [AEME, Anhydroecgonine methyl ester]
[5]
  recovery of response to ACh after repeated washings: did not recover
  response of tissue to 10^−4M ACh: reduced response of tissue
  response to a range of ACh concentrations (up to 2×10^−3M): attenuated
  reversal of attenuation by washing: not reversed
[6]
  cholinergic agonist activity: lacked cholinergic agonist activity
  levels at which antimuscarinic properties on tracheal rings were observed (as low as): 10^−9 M
  sensitization to ACh produced by cocaine at 5×10^−6 M: reduced the sensitization
  type of muscarinic activity in vitro: potent non-competitive muscarinic antagonist
[7]; in vivo
  safety: wide margin of safety
[7]
  anticholinergic effects in the lung in vivo: more sustained and dramatic than anticipated

## C[N+]12CCC(CC1)C(OC(=O)C(O)(c1ccccc1)c1ccccc1)C2 (centres unmarked) [MeQNB, methyl quinuclidinyl benzilate]
[8]
  Body Temp increase ° C.: 0 °C
  Heart rate % increase: 0%
[8]; iv
  activity relative to oxybutynin: about 10 fold
[9]
  rate constant k+1: 1e+07 ± 1.7e+06 M⁻¹ s⁻¹
  rate constant k−1: 4.5e+06 ± 500000 M⁻¹ s⁻¹
[10]
  rate constant of nonspecific binding: 0.03 min⁻¹
[10]; read-out: equilibrium dissociation constant kd
  Kd: 2 ± 0.5 nM

## CN1[C@@H]2CC[C@H]1C[C@@H](OC(=O)C(CO)c1ccccc1)C2 (some centres unmarked) [atropine]
[11]
  accumulation in the heart blocked by preinjection: 89%

## O=C1OC2(c3ccc(O)cc3Oc3cc(O)ccc32)c2ccccc21 [fluorescein]
[12]
  absorbed from the bladder: About 50%

## COc1ccccc1CNCCCCCCNCCCCCCCCNCCCCCCNCc1ccccc1OC [methoctramine]
[13]
  Ki: 408 nM

## O[Si](CCCN1CCCCC1)(c1ccc(F)cc1)C1CCCCC1 (centres unmarked) [p-F-HHSiD]
[13]; read-out: Ki
  Ki: 28 nM

## CC(CC(c1ccccc1)c1ccccc1)NC(C)(C)C (centres unmarked) [terodiline, Terodiline]
[14]
  Bladder volume at first urge and bladder capacity: increased
  micturition frequency and incontinence episodes: reduced
